Results reported in patent US5725870A, “Methods, composites and articles for contraception” (priority 1996, dated 1998).
Values after ≈ are worked out from the molar mass of the structure shown. Values joined by “and” are separate entries in the source; they are usually repeats but may differ in a detail not shown here. Equal values may be shown once. Read-outs that look alike come from different tables or passages of the source.

Tests used:
HIV = experiment: Activity against HIV, test not described; assay type: cell-based
Source text: (§1) and may be prepared by the H2 O2 oxidation of cysteamine (Mills, Jr. et al, J. Am. Chem. Soc., vol. 62, 1173 (1940); and Barnett, J. Chem. Soc., 1944, 5).

[1] = Cytotoxicity in HIV experiments, test not described; assay type: cell-based
Source text: as §1

[2] = target: T1, sheep testicular hyaluronidase (Ovis aries, UniProt A0ACI6R774); experiment: Hyaluronidase inhibition assay; assay type: biochemical; conditions: for Absorbance at 545 nm, Reaction: blank 0.0463
T1 construct: soluble form of GPI-anchored sperm protein
T1 sequence (A0ACI6R774 34-551): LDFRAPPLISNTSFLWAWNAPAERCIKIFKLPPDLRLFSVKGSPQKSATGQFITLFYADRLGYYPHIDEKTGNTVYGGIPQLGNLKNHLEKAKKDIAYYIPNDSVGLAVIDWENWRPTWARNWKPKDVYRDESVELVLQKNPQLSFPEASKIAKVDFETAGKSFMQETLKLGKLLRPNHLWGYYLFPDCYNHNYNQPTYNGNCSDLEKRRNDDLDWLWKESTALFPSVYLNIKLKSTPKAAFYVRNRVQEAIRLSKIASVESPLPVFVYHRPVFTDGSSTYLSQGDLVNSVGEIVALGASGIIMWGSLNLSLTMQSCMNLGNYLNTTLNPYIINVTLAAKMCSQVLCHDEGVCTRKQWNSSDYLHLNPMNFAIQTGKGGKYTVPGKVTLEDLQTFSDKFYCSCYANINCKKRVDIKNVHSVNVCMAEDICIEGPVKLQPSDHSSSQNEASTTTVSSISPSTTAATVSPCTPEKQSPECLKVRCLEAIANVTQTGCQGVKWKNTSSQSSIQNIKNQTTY
Description: Hyaluronidase activity is quantified by measuring the extent of hyaluronic acid hydrolysis. This is measured by determining the concentration of N-acetylglucosamine-reactive material, resulting from enzyme action.
Reaction mixtures contain the following, in a total volume of 0.25 ml: 0.1M sodium acetate, containing 0.15M NaCl, pH 5.5 (Acetate buffer); 7.2 Units sheep testicular hyaluronidase (Sigma, Type III; cat. no. H-2251), from a stock solution dissolved in the Acetate buffer; 0.3 mg/ml hyaluronic acid (Sigma, from bovine vitreous humor, cat-no. H-7630).
The test compound is screened at a concentration of 1 mg/ml, unless aqueous solubility is limited. The enzyme is preincubated with the test agent for 10 minutes prior to starting the reaction by adding hyaluronic acid. Enzyme reactions are determined by the method of Aronson and Davidson (J. Biol. Chem., vol. 242, pp. 437-440 (1967)). Incubations are carried out for 30 minutes at ambient temperature. Reaction product is determined colorimetrically after reaction with p-dimethylaminobenzaldehyde (Reissig et al., J. Biol. Chem., vol. 217, pp. 959-966 (1955)). The absorbance of the resultant adduct is immediately determined at 545 nm.
Differences are determined between absorbencies for reactions run in the presence and absence of hyaluronidase (blank, in which hyaluronidase is added after terminating reaction). This is compared to a standard curve of known amounts of N-acetylglucosamine that were treated identically to enzyme reaction mixtures, and converted to μmole equivalents of N-acetylglucosamine. The data are reported as % inhibition, compared to control. A dose-response curve is generated at several concentrations of test compound if significant inhibition is obtained at the screening concentration.
(§2) IC50 values (those concentrations of inhibitor that produce 50% inhibition under the conditions of the assay) are determined by analyzing enzyme activity as a function of inhibitor concentration, with curve-fitting software (TableCurve 2D, version 3.02; Jandel Scientific).

Human acrosin = target: T2, Human acrosin (Homo sapiens, UniProt P10323); experiment: Acrosin inhibition assay; assay type: biochemical; conditions: for Acrosin Activity: control 5.4 ± 0.14; for Acrosin Inhibitor (active yes/no): screened at 1 mg/ml
T2 construct: human acrosin is isolated from washed spermatozoa from frozen semen; from tissue; host or cells: washed human spermatozoa from frozen semen; acid extract, ultrafiltration, Sephadex G-150 pool
T2 sequence (P10323 43-343 limits assumed): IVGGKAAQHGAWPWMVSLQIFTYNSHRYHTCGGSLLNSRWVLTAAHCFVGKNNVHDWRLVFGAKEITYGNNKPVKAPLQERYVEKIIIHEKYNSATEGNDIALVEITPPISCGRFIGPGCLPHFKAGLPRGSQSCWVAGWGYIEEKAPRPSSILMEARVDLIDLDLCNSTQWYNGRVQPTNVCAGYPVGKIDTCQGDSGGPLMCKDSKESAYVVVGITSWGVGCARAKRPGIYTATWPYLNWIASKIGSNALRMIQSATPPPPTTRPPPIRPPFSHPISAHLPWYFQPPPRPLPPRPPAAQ
T2 sequence (P10323 20-42 partner limits assumed): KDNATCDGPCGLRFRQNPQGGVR
Description: Human acrosin activity is measured by following the progression of hydrolysis of N-α-benzoyl-L-arginine ethyl ester (BAEE) spectrophotometrically at 253 nm. Enzyme isolation, partial purification and measurement are carried out by methods described in detail by Anderson et al. (Biochem. J., vol. 199, pp. 307-316 (1981)). Briefly, human acrosin is isolated from washed spermatozoa from frozen semen by extraction with 66 mM acetic acid, pH 2.8. The extract is concentrated by ultrafiltration (Amicon PM 10) and applied to a column that contains Sephadex G-150 (superfine); elution is carried out with 55 mM acetic acid that contains 0.1M NaCl. The eluted volume that contains acrosin activity is pooled and used as the source of enzyme.
Enzyme reaction mixtures contain the following: 50 mM sodium phosphate, pH 7.5 (Anderson et al, Arch. Biochem. Biophys., vol. 241, pp. 509-520 (1985)); Enzyme-containing protein (3-5 mIU, where 1 mIU is the amount of enzyme required to hydrolyze 1 nmole BAEE per min); 0.05 mM BAEE; with or without inhibitor, in a total volume of 1.0 ml.
The test compound is screened at a concentration of 1 mg/ml, unless solubility is limited. The enzyme is preincubated with the test agent for 5 minutes prior to starting the reaction by adding BAEE. Reaction blanks, in which either substrate or enzyme has been eliminated, are run in parallel to the reactions.
The rate of change in absorbance at 253 nm is determined. The change in absorbance that corresponds to 1 μmole of BAEE (in a total volume of 1.0 ml) hydrolyzed is taken as 1.15.
The enzyme activity in the presence of each agent is compared with that for the control reaction (no test agent added). The data are reported as % inhibition. […] A dose-response curve is generated at several concentrations of test compound if significant inhibition is obtained at the screening concentration.
Reversibility of acrosin inhibition is determined by the method of Ackermann and Potter (Proc. Soc. Exp. Biol. Med., vol. 72, pp. 1-9 (1949)), in which the level of inhibited enzyme activity is determined in the presence of different amounts of enzyme.
as §2

motile spermatozoa = experiment: Assessment of spermicidal activity (sperm motility, Sander and Cramer); assay type: cell-based
Description: The method is based on that originally described by Sander and Cramer (F. V. Sander and S. D. Cramer. Human Fertil., vol. 6, pp. 134 (1941)). Apparent spermicidal activity of the test agents are compared to that of a control preparation of nonoxynol-9 (N9).
For the screening of spermicidal activity of a test agent, a solution of 50 mg/ml is prepared in 0.9% NaCl. This solution is adjusted to pH 7.0 with either HCl or NaOH and is further diluted in 0.9% NaCl to concentrations of 25 mg/ml, 10 mg/ml, 5 mg/ml, and 2.5 mg/ml. N9 is prepared as a solution of 100 μg/ml in 0.9% NaCl.
The agents are tested by mixing 40 μl of freshly ejaculated semen with 200 μl of test agent at each concentration. Just prior to and 30 seconds after mixing, the percentage of motile spermatozoa is determined by microscopic observation (400×). If 90-100% inhibition of motility is obtained at the lowest concentration tested, the experiment is repeated with a different range of concentrations, the highest concentration being 2.5 mg/ml. A dose-response curve is constructed.

Lactobacillus gasseri = experiment: Assay of vaginal lactobacillus growth; assay type: cell-based
Description: Cysteamine was screened with regard to its potential cytotoxicity toward normal vaginal flora. Growth of vaginal lactobacillus was used as a measure of this effect.
Lactobacillus gasseri, obtained from the American Type Culture Collection (Rockville, Md.) is cultured under anaerobic conditions at 37° in the presence of test agent or no additions (control). Beginning at 120 minutes after the start of incubation and at 20 minute intervals, for a total length of 240 minutes, samples are removed from the incubation flasks, and the absorbance of each suspension at 550 nm is determined, as an estimate of cell density. Data are fit to the equation, Ln (Absorbance)=a+b (Time), where a is the absorbance at 0 time, b is the slope of the curve, and time is measured in minutes. The doubling time (TD) is calculated from the equation TD =(Ln 2)/b. Values are given as the doubling time of bacterial growth, together with the 90% confidence limits. Inhibition of bacterial growth by a test agent can be directly calculated from the reciprocal values of the doubling time (i.e., 75% inhibition of the reciprocal of the calculated doubling time is equal to 75% inhibition of bacterial growth).
Dose-response curves are produced by determining the doubling time of the culture in the presence of each of several concentrations of test agent, the exact range of which is determined by the results of the screening test that is described above. The concentration of test agent that inhibits the growth of lactobacillus by 50% (IC50) is determined from the calculated doubling time at each concentration of test agent, with curve-fitting software (TableCurve 2D, version 3.02, Jandel Scientific).

CEM-T4 lymphocytes = conditions: 100 μM, added twice-daily; cited from earlier work
epithelial fibroblasts = conditions: cited from earlier work
[3] = tested on: cystine crystals found in the corneas; conditions: topical aqueous 0.1% and 0.5%; cited from earlier work
HTLVIIIB = conditions: 100 μM, added twice-daily, CEM-T4 lymphocytes; cited from earlier work
[4] = 1 mg/ml test agent, 10 min preincubation

Molecule: NCCSSCCN [Cystamine]
- Activity against the HIV pathogen (HIV): substantial activity
- Cytotoxicity ([1]; 100 μM): little cytotoxicity

Molecule: NCCS [cysteamine, Cysteamine]
- IC20 [2]: 87 µg/mL (≈ 1130 µM)
- IC80 [2]: 219 µg/mL (≈ 2840 µM)
- % Inhibition at 1 mg/ml (hyaluronidase) [2, 4]: completely inhibit
- inhibition at 1000 µg/mL [2, 4]: 100%
- Absorbance at 545 nm, Reaction ([2]; cysteamine 1.6 μg/ml): 0.1892 and 0.1967
- Absorbance at 545 nm, Reaction ([2]; cysteamine 8.0 μg/ml): 0.1955 and 0.1853
- Absorbance at 545 nm, Reaction ([2]; cysteamine 40.0 μg/ml): 0.1775 and 0.1855
- Absorbance at 545 nm, Reaction ([2]; cysteamine 200 μg/ml): 0.0585 and 0.0656
- Absorbance at 545 nm, Reaction ([2]; cysteamine 1,000 μg/ml): 0.0068 and 0.0069
- Hyaluronidase Inhibitor (yes/no) ([2]; summary table): Yes
- Acrosin Activity (Human acrosin; cysteamine 0.08 mg/ml): 5.2 ± 0.74 μmoles BAEE hydrolyzed/min/mg
- Acrosin Activity (Human acrosin; cysteamine 0.10 mg/ml): 3.8 ± 0.32 μmoles BAEE hydrolyzed/min/mg
- Acrosin Activity (Human acrosin; cysteamine 0.25 mg/ml): 3.4 ± 0.10 μmoles BAEE hydrolyzed/min/mg
- Acrosin Activity (Human acrosin; cysteamine 0.50 mg/ml): 2.2 μmoles BAEE hydrolyzed/min/mg
- Acrosin Activity (Human acrosin; cysteamine 0.8 mg/ml): 0.9 ± 0.28 μmoles BAEE hydrolyzed/min/mg
- Acrosin Activity (Human acrosin; cysteamine 1.0 mg/ml): 0.6 μmoles BAEE hydrolyzed/min/mg
- 3 Log reduction (99.9% inhibition) of acrosin (Human acrosin; from fitted curve, above highest tested concentration): 3.3 mg/ml
- IC99.9 (Human acrosin; from fitted curve, above highest tested concentration, read-out: 3 Log reduction (99.9% inhibition) of acrosin): 3270 µg/mL
- Reversibility of acrosin inhibition (Human acrosin; method of Ackermann and Potter, different amounts of enzyme): consistent with a reversible mechanism of inhibition
- Acrosin Inhibitor (active yes/no) (Human acrosin): active
- Acrosin Inhibitor (active yes/no) (Human acrosin; listed as Cysteamine): Yes
- IC50 (Human acrosin; summary table): 4.8 mM
- Spermicide (effect on sperm motility, in words) (motile spermatozoa): reduce sperm motility
- Spermicide (effect on sperm motility, in words) (motile spermatozoa; listed as Cysteamine): Yes
- % Inhibition at 5 mg/ml (growth of vaginal lactobacillus) (Lactobacillus gasseri): no effect
- % Inhibition at 5 mg/ml (growth of vaginal lactobacillus) (Lactobacillus gasseri; listed as Cysteamine): No inhibition
- inhibition at 5000 µg/mL (Lactobacillus gasseri; Lactobacillus gasseri, read-out: % Inhibition at 5 mg/ml (growth of vaginal lactobacillus)): 0%
- Antiviral effect against HIV (HIV; other cell lines and other HIV strains): substantiate the antiviral effect
- Cellular toxicity [1]: lack of cellular toxicity
- Toxicity (cell survival) (CEM-T4 lymphocytes): 120.8 % of control
- Cloning efficiency (epithelial fibroblasts; 10 μM): severe loss in cloning efficiency
- Cloning efficiency (epithelial fibroblasts; One hundred μM): zero
- Doubling time (epithelial fibroblasts; One hundred μM): two-fold increase
- Effect on growth rate (epithelial fibroblasts; concentrations up to 10 μM): no effect on growth rate
- Reduction of corneal cystine crystals [3]: effective in reducing the cystine crystals
- Tolerability in chronic topical use [3]: well-tolerated
- Survival of treated cells, protection against HTLVIIIB (HTLVIIIB): 133 % of control

Molecule: nonylphenoxypolyoxyethene glycol [nonoxynol-9, reference compound]
- % Inhibition at 1 mg/ml (hyaluronidase) [2, 4]: 4%
- % Inhibition (growth of vaginal lactobacillus) (Lactobacillus gasseri; Tested at 0.5 mg/ml): 60%
